{
  "source": "paper PMC13070491",
  "about": "“Single-nucleus transcriptomics, pharmacokinetics, and pharmacodynamics of CDK4/6 and mTOR inhibition in a Phase 0/1 trial of recurrent high-grade glioma” (Neuro-Oncology, 2025)",
  "test": "CNS penetration: total and unbound drug concentrations in tumor regions, CSF and plasma (LC-MS/MS, equilibrium dialysis);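 also: drug levels in patient tumor tissue from contrast-enhancing and non-enhancing regions sampled under MRI-guided neuronavigation, with plasma and CSF drawn during surgical resection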",
  "conditions": "for Everolimus.CSF / Everolimus.Enhancing.tumor / Everolimus.Non-enhancing.tumor / Everolimus.Plasma.conc / Everolimus.Unbound.enhancing / Everolimus.Unbound.non-enhancing / Everolimus.Unbound.plasma: per patient",
  "key": {"[1]": {"conditions": "Level 0: Ribociclib 400mg QD + Everolimus 2.5mg QD, sampling 1-3 Hours"}, "[2]": {"conditions": "Level 0: Ribociclib 400mg QD + Everolimus 2.5mg QD, sampling 7-9 Hours"}, "[3]": {"conditions": "Level 0: Ribociclib 400mg QD + Everolimus 2.5mg QD, sampling 23-25 Hours"}, "[4]": {"conditions": "Level 1: Ribociclib 600mg QD + Everolimus 2.5mg QD, sampling 1-3 Hours"}, "[5]": {"conditions": "Level 1: Ribociclib 600mg QD + Everolimus 2.5mg QD, sampling 7-9 Hours"}, "[6]": {"conditions": "Level 2: Ribociclib 600mg QD + Everolimus 5mg QD, sampling 7-9 Hours"}, "[7]": {"conditions": "Level 3: Ribociclib 600mg QD + Everolimus 10mg QD, sampling 7-9 Hours"}, "[8]": {"conditions": "Level 4: Ribociclib 600mg QD + Everolimus 50mg once on Day 5, sampling 7-9 Hours"}, "[9]": {"conditions": "Level 5: Ribociclib 600mg QD + Everolimus 60mg once on Day 5, sampling 7-9 Hours"}},
  "note": "Several values for one entry are separate records, joined by “and”; a condition that tells them apart may be missing. Identical values can stand only once.",
  "data": [
    {"compound": "CO[C@H]1C[C@@H]2CC[C@@H](C)[C@@](O)(O2)C(=O)C(=O)N2CCCC[C@H]2C(=O)O[C@H]([C@H](C)C[C@@H]2CC[C@@H](OCCO)[C@H](OC)C2)CC(=O)[C@H](C)/C=C(\\C)[C@@H](O)[C@@H](OC)C(=O)[C@H](C)C[C@H](C)/C=C/C=C/C=C/1C", "note": "[Everolimus, everolimus]", "values": [
      {"measurement": "Total everolimus, CSF, MAX", "setting": "2.5 mg QD 5 days", "result": 0.4, "unit": "nM"},
      {"measurement": "Total everolimus, CSF, MIN", "setting": "2.5 mg QD 5 days", "result": "BLQ"},
      {"measurement": "Total everolimus, Enhancing tumor, MIN", "setting": "2.5 mg QD 5 days", "result": "BLQ"},
      {"measurement": "Total everolimus, Non-enhancing tumor, MIN", "setting": "2.5 mg QD 5 days", "result": "BLQ"},
      {"measurement": "Total everolimus, CSF, MAX", "setting": "5 mg QD 5 days", "result": "BLQ"},
      {"measurement": "Total everolimus, CSF, MED", "setting": "5 mg QD 5 days", "result": "BLQ"},
      {"measurement": "Total everolimus, CSF, MIN", "setting": "5 mg QD 5 days", "result": "BLQ"},
      {"measurement": "Total everolimus, CSF, MED", "setting": "10 mg QD 5 days", "result": 1.4, "unit": "nM"},
      {"measurement": "Total everolimus, CSF, MIN", "setting": "10 mg QD 5 days", "result": "BLQ"},
      {"measurement": "Total everolimus, Enhancing tumor, MIN", "setting": "10 mg QD 5 days", "result": "BLQ"},
      {"measurement": "Total everolimus, CSF, MIN", "setting": "50 mg single dose", "result": "BLQ"},
      {"measurement": "Total everolimus, Non-enhancing tumor, MIN", "setting": "50 mg single dose", "result": "BLQ"},
      {"measurement": "Total everolimus, CSF, MAX", "setting": "60 mg single dose", "result": 0.57, "unit": "nM"},
      {"measurement": "Total everolimus, CSF, MED", "setting": "60 mg single dose", "result": 0.57, "unit": "nM"},
      {"measurement": "Total everolimus, CSF, MIN", "setting": "60 mg single dose", "result": "BLQ"},
      {"measurement": "Total everolimus, CSF, MAX", "setting": "70 mg single dose", "result": 11.4, "unit": "nM"},
      {"measurement": "Total everolimus, CSF, MED", "setting": "70 mg single dose", "result": 6.35, "unit": "nM"},
      {"measurement": "Total everolimus, CSF, MIN", "setting": "70 mg single dose", "result": "BLQ"},
      {"measurement": "Everolimus.CSF", "setting": "[1]", "result": "BLQ"},
      {"measurement": "Everolimus.Enhancing.tumor", "setting": "[1]", "result": "5.92E-03 and 4.32E-03"},
      {"measurement": "Everolimus.Non-enhancing.tumor", "setting": "[1]", "result": "2.88E-03 and BLQ"},
      {"measurement": "Everolimus.Plasma.conc", "setting": "[1]", "result": "0.02558 and 0.00883"},
      {"measurement": "Everolimus.Unbound.enhancing", "setting": "[1]", "result": "BLQ"},
      {"measurement": "Everolimus.Unbound.non-enhancing", "setting": "[1]", "result": "BLQ"},
      {"measurement": "Everolimus.Unbound.plasma", "setting": "[1]", "result": "BLQ"},
      {"measurement": "Everolimus.CSF", "setting": "[2]", "result": "BLQ"},
      {"measurement": "Everolimus.Enhancing.tumor", "setting": "[2]", "result": "BLQ and 1.69E-02"},
      {"measurement": "Everolimus.Non-enhancing.tumor", "setting": "[2]", "result": "BLQ and 2.24E-03"},
      {"measurement": "Everolimus.Plasma.conc", "setting": "[2]", "result": "0.00955 and 0.00618"},
      {"measurement": "Everolimus.Unbound.enhancing", "setting": "[2]", "result": "BLQ"},
      {"measurement": "Everolimus.Unbound.non-enhancing", "setting": "[2]", "result": "BLQ"},
      {"measurement": "Everolimus.Unbound.plasma", "setting": "[2]", "result": "BLQ"},
      {"measurement": "Everolimus.CSF", "setting": "[3]", "result": "BLQ"},
      {"measurement": "Everolimus.Enhancing.tumor", "setting": "[3]", "result": "BLQ and 4.44E-03"},
      {"measurement": "Everolimus.Non-enhancing.tumor", "setting": "[3]", "result": "BLQ and 5.84E-03"},
      {"measurement": "Everolimus.Plasma.conc", "setting": "[3]", "result": "0.00384 and 0.00714"},
      {"measurement": "Everolimus.Unbound.enhancing", "setting": "[3]", "result": "BLQ"},
      {"measurement": "Everolimus.Unbound.non-enhancing", "setting": "[3]", "result": "BLQ"},
      {"measurement": "Everolimus.Unbound.plasma", "setting": "[3]", "result": "BLQ"},
      {"measurement": "Everolimus.CSF", "setting": "[4]", "result": "3.90E-04"},
      {"measurement": "Everolimus.Enhancing.tumor", "setting": "[4]", "result": "4.40E-03"},
      {"measurement": "Everolimus.Non-enhancing.tumor", "setting": "[4]", "result": "4.72E-03"},
      {"measurement": "Everolimus.Plasma.conc", "setting": "[4]", "result": 0.01738},
      {"measurement": "Everolimus.Unbound.enhancing", "setting": "[4]", "result": "BLQ"},
      {"measurement": "Everolimus.Unbound.non-enhancing", "setting": "[4]", "result": "BLQ"},
      {"measurement": "Everolimus.Unbound.plasma", "setting": "[4]", "result": "BLQ"},
      {"measurement": "Everolimus.CSF", "setting": "[5]", "result": "2.70E-04 and 3.30E-04"},
      {"measurement": "Everolimus.Enhancing.tumor", "setting": "[5]", "result": "8.34E-02 and 9.20E-03"},
      {"measurement": "Everolimus.Non-enhancing.tumor", "setting": "[5]", "result": "3.53E-02 and 8.80E-03"},
      {"measurement": "Everolimus.Plasma.conc", "setting": "[5]", "result": "0.03462 and 0.01401"},
      {"measurement": "Everolimus.Unbound.enhancing", "setting": "[5]", "result": "BLQ"},
      {"measurement": "Everolimus.Unbound.non-enhancing", "setting": "[5]", "result": "BLQ"},
      {"measurement": "Everolimus.Unbound.plasma", "setting": "[5]", "result": "BLQ"},
      {"measurement": "Everolimus.CSF", "setting": "[6]", "result": "BLQ"},
      {"measurement": "Everolimus.Enhancing.tumor", "setting": "[6]", "result": "3.98E-02 and 1.11E-02 and 1.66E-02"},
      {"measurement": "Everolimus.Non-enhancing.tumor", "setting": "[6]", "result": "2.02E-02 and 9.20E-03 and 1.03E-02"},
      {"measurement": "Everolimus.Plasma.conc", "setting": "[6]", "result": "0.0225 and 0.0084 and 0.0281"},
      {"measurement": "Everolimus.Unbound.enhancing", "setting": "[6]", "result": "BLQ"},
      {"measurement": "Everolimus.Unbound.non-enhancing", "setting": "[6]", "result": "BLQ"},
      {"measurement": "Everolimus.Unbound.plasma", "setting": "[6]", "result": "BLQ"},
      {"measurement": "Everolimus.CSF", "setting": "[7]", "result": "BLQ and 2.50E-03 and 3.00E-04"},
      {"measurement": "Everolimus.Enhancing.tumor", "setting": "[7]", "result": "6.13E-02 and 2.67E-02 and BLQ"},
      {"measurement": "Everolimus.Non-enhancing.tumor", "setting": "[7]", "result": "3.33E-02 and 4.50E-03 and 5.00E-03"},
      {"measurement": "Everolimus.Plasma.conc", "setting": "[7]", "result": "0.0311 and 0.0616 and 0.0431"},
      {"measurement": "Everolimus.Unbound.enhancing", "setting": "[7]", "result": "BLQ"},
      {"measurement": "Everolimus.Unbound.non-enhancing", "setting": "[7]", "result": "BLQ"},
      {"measurement": "Everolimus.Unbound.plasma", "setting": "[7]", "result": "BLQ"},
      {"measurement": "Everolimus.CSF", "setting": "[8]", "result": "BLQ and 3.70E-04 and 1.50E-03"},
      {"measurement": "Everolimus.Enhancing.tumor", "setting": "[8]", "result": "5.16E-02 and 5.45E-02 and 7.41E-02"},
      {"measurement": "Everolimus.Non-enhancing.tumor", "setting": "[8]", "result": "2.51E-02 and 6.30E-03"},
      {"measurement": "Everolimus.Plasma.conc", "setting": "[8]", "result": "0.07949 and 0.06123 and 0.063"},
      {"measurement": "Everolimus.Unbound.enhancing", "setting": "[8]", "result": "BLQ"},
      {"measurement": "Everolimus.Unbound.non-enhancing", "setting": "[8]", "result": "BLQ"},
      {"measurement": "Everolimus.Unbound.plasma", "setting": "[8]", "result": "4.59E-04 and 2.99E-04 and 3.00E-04"},
      {"measurement": "Everolimus.CSF", "setting": "[9]", "result": "5.70E-04 and BLQ"},
      {"measurement": "Everolimus.Enhancing.tumor", "setting": "[9]", "result": "8.76E-02 and 3.04E-02 and 9.84E-03"},
      {"measurement": "Everolimus.Non-enhancing.tumor", "setting": "[9]", "result": "3.61E-02 and 1.38E-02 and 1.13E-02"},
      {"measurement": "Everolimus.Plasma.conc", "setting": "[9]", "result": "0.07053 and 0.09226 and 0.06809"},
      {"measurement": "Everolimus.Unbound.enhancing", "setting": "[9]", "result": "BLQ"},
      {"measurement": "Everolimus.Unbound.non-enhancing", "setting": "[9]", "result": "BLQ"}
    ]}
  ]
}
